The test system of assay [1] is MRC-5 cells. In words: Western blot of fibronectin/α-SMA after lipid-mediated delivery of anti-fibrotic HJT-sRNA, TGF-β1 stimulation. It is filed as cell-based. The settings on record: FIG. 102; nucleic acid 400 nM; TGF-β1 3 ng/mL, 72 hours. How it is done: (§1) 3.3 Western blot detection of protein expression levels 3.3.1 MRC-5 cell (pulmonary embryonic fibroblast), and A549 cell (human lung adenocarcinoma cell) were cultured to logarithmic growth phase, and then plated into 12-well plates at a cell density of 6×10^5/1 mL medium/well; MRC-5 cells were cultured in Eagle's MEM medium (MEM, Gibco); A549 cells were cultured in Ham's F-12 medium (HyClone); followed by incubation overnight at 37° C., and the follow-up experiments were performed after the cells were attached to the walls.
(§2) 4) Lipid nucleic acid mixture: the mixture of lipid and nucleic acid prepared from the step 2 were added into cells and mixed, and the final concentration of nucleic acid was 400 nM.
(§3) 3.3.3 After 24 hours of treatment, the cells were stimulated with the stimulant (1 μg/mL poly (I:C) (P1530, Sigma-Aldrich) as double-stranded RNA viruses mimetics) or 3 ng/mL transforming growth factor TGF(31 (Pepro Tech)). […]

Assay [2] concerns A549 cells. In words: Western blot of knockdown protein after lipid-mediated siRNA delivery. It is filed as cell-based, human. The settings on record: FIG. 82; reverse evaporation method; LAMP2, XPN2, Ssu72, CPSF4 or β-actin siRNA 400 nM. The procedure:
as §1, §2, §3
In general terms: Immunoblotting shows a protein as a band on a membrane.

SMILES strings stand for the structures.

Turning to `CCCCCCCC/C=C\CCCCCCCCCCCC(=O)O[C@H](COC(=O)CCCCCCCCCCCCCCC)COP(=O)(O)OCCN` [No. 40, (2-aminoethoxy) [(2R)-2-[(13Z)-docos-13-enoyloxy]-3-(hexadecanoyloxy)propoxy] phosphinic acid], the “fibronectin protein expression after delivery of double-stranded HJT-sRNA-m7 (Western blot)” value in assay [1] is “mediated anti-fibrotic double-stranded RNA HJT-sRNA-m7 entry into MRC-5 cells to down-regulate fibronectin protein expression”.

For `CCCCCCCCCCCCCCCCCCC[C@@H](O)[C@@H](N)CO` [No. 41, Sphinganine (d22:0)], the “protein knockdown effect of delivered siRNA vs RNAiMAX (Western blot)” value in assay [2] was “significantly higher than the inhibitory effect of HJT-sRNA-m7 mediated by RNAiMAX”.
